Drawing on patent US9326985B2, “Heteroaryl pyridone and aza-pyridone amide compounds” (Genentech, Inc., priority 2013, dated 2016), this text covers IC50 and Ki for 16 compounds.

What is called IC50 is the midpoint of a concentration-inhibition curve. The Ki is the dissociation constant of the complex between target and ligand, obtained from inhibition or displacement.

In test [1] the test system is CD69 by B lymphocytes in human whole blood activated with goat F(ab')2 anti-human IgM. The test can be described thus: CD69 Whole Blood Assay (CD69 Hu Blood FACS). It is filed as cell-based. To be noted: CD69 positive of CD20 positive cells. The protocol: CD69 is a type II C-type lectin involved in lymphocyte migration and cytokine secretion.
Human blood is obtained from healthy volunteers, with the following restrictions: 1 week drug-free, non-smokers. Blood (approximately 20 mls to test 8 compounds) is collected by venipuncture into Vacutainer® (Becton, Dickinson and Co.) tubes with sodium heparin.
Solutions of Formula I compounds at 10 mM in DMSO are diluted 1:10 in 100% DMSO, then are diluted by three-fold serial dilutions in 100% DMSO for a ten point dose-response curve. The compounds are further diluted 1:10 in PBS and then an aliquot of 5.5 μl of each compound is added in duplicate to a 2 ml 96-well plate; 5.5 μl of 10% DMSO in PBS is added as control and no-stimulus wells. Human whole blood—HWB (100 μl) is added to each well. After mixing the plates are incubated at 37° C., 5% CO2, 100% humidity for 30 minutes. Goat F(ab′)2 anti-human IgM (10 μl of a 500 μg/ml solution, 50 μg/ml final) is added to each well (except the no-stimulus wells) with mixing and the plates are incubated for an additional 20 hours. At the end of the 20 hour incubation, samples are incubated with fluorescent labeled antibodies for 30 minutes, at 37° C., 5% CO2, 100% humidity. Include induced control, unstained and single stains for compensation adjustments and initial voltage settings. Samples are then lysed with PharM Lyse™ (BD Biosciences Pharmingen) according to the manufacturer's instructions. Samples are then transferred to a 96 well plate suitable to be run on the BD Biosciences HTS 96 well system on the LSRII machine. Data acquired and Mean Fluorescence Intensity values were obtained using BD Biosciences DIVA Software. Results are initially analyzed by FACS analysis software (Flow Jo).

Test [2] has as its target T1, full length human wildtype Btk (Homo sapiens, UniProt Q06187).
T1 construct: V5 (C); 6xHis (C); made in house; host or cells: Sf9 insect cells (baculovirus, pFastBac)
The test can be described thus: Biochemical Btk Assay (BTK LC3K). As to the method:
A generalized procedure for a standard biochemical Btk, Kinase Assay that can be used to test Formula I compounds is as follows. A master mix minus Btk enzyme is prepared containing 1× Cell Signaling kinase buffer (25 mM Tris-HCl, pH 7.5, 5 mM beta-glycerophosphate, 2 mM dithiothreitol, 0.1 mM Na3VO4, 10 mM MgCl2), 0.5 μM Promega PTK Biotinylated peptide substrate 2, and 0.01% BSA. A master mix plus Btk enzyme is prepared containing 1× Cell Signaling kinase buffer, 0.5 μM (micromolar) PTK Biotinylated peptide substrate 2, 0.01% BSA, and 100 ng/well (0.06 mU/well) Btk enzyme. Btk enzyme is prepared as follows: full length human wildtype Btk (accession number NM-000061) with a C-terminal V5 and 6×His tag was subcloned into pFastBac® vector (Invitrogen/Life Technologies) for making baculovirus carrying this epitope-tagged Btk. […] Passage 3 virus is used to infect Sf9 cells to overexpress the recombinant Btk protein. The Btk protein is then purified to homogeneity using Ni-NTA column. […] A solution of 200 μM ATP is prepared in water and adjusted to pH 7.4 with 1N NaOH. A quantity of 1.25 μL (microliter) of compounds in 5% DMSO is transferred to a 96-well ½ area Costar polystyrene plate. Compounds are tested singly and with an 11-point dose-responsive curve (starting concentration is 10 μM; 1:2 dilution). A quantity of 18.75 μL of master mix minus enzyme (as a negative control) and master mix plus enzyme is transferred to appropriate wells in 96-well ½ area costar polystyrene plate. 5 μL of 200 μM ATP is added to that mixture in the 96-well ½ area Costar polystyrene plate for final ATP concentration of 40 μM. The reaction is allowed to incubate for 1 hour at room temperature. The reaction is stopped with Perkin Elmer 1× detection buffer containing 30 mM EDTA, 20 nM SA-APC, and 1 nM PT66 Ab. […] IC50 values are subsequently calculated. Alternatively, the Lanthascreen assay can be used to evaluate Btk activity through quantification of its phosphorylated peptide product. The FRET (Fluorescence Resonance Energy Transfer) that occurs between the fluorescein on the peptide product and the terbium on the detection antibody decreases with the addition of inhibitors of Btk that reduce the phosphorylation of the peptide. In a final reaction volume of 25 uL, Btk (h) (0.1 ng/25 ul reaction) is incubated with 50 mM Hepes pH 7.5, 10 mM MgCl2, 2 mM MnCl2, 2 mM DTT, 0.2 mM NaVO4, 0.01% BSA, and 0.4 uM fluorescein poly-GAT. […] After incubation for 60 minutes at room temperature, the reaction is stopped by the addition of a final concentration of 2 nM Tb-PY20 detection antibody in 60 mM EDTA for 30 minutes at room temperature.

[3] abbreviates: Lymphocyte, Table 2, anti-IgM stimulation.
[4] abbreviates: Lymphocyte, Table 1, anti-IgM stimulation.

T1 sequence (Q06187 whole entry): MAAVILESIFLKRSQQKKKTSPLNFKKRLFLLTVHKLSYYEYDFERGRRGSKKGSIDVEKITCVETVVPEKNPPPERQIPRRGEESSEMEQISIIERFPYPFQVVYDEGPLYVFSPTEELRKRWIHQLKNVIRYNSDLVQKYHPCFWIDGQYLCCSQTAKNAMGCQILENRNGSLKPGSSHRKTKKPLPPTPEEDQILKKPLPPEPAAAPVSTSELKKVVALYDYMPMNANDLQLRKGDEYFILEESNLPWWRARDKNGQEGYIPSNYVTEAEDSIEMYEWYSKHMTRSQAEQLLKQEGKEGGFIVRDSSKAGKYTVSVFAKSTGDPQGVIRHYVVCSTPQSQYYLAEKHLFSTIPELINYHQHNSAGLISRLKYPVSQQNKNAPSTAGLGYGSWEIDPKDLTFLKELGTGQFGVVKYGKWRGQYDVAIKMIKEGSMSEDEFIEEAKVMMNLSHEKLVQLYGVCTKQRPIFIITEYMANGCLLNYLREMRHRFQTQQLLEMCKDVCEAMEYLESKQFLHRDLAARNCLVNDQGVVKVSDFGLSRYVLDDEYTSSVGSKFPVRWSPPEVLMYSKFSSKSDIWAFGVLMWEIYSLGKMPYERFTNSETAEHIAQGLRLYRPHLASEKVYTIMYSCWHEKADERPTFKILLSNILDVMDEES

Turning to `Cn1cc(-c2cc(F)cc(N3CCc4c(cc5n4CC(C)(C)C5)C3=O)c2CO)cc(NC(=O)[C@@H]2C[C@@H]2F)c1=O` [Compound 168], in test [1] (setting [3]), the 50% inhibitory concentration (IC50) worked out at 157 nM. In test [2] (Table 2), this compound came in with a Ki of 1 nM. For `Cc1cc(C(=O)Nc2cc(-c3ccnc(N4CCn5c(cc6c5CC(C)(C)C6)C4=O)c3CO)cn(C)c2=O)n[nH]1` [Compound 111, N-[5-[2-(7,7-dimethyl-4-oxo-1,2,6,8-tetrahydrocyclopenta[3,4]pyrrolo[3,5-b]pyrazin-3-yl)-3-(hydroxymethyl)-4-pyridyl]-1-methyl-2-oxo-3-pyridyl]-5-methyl-1H-pyrazole-3-carboxamide], the IC50 in test [1] (setting [4]) is > 5400 nM. Also, the Ki in test [2] (Table 1) was > 500 nM. For `Cn1cc(-c2ccnc(N3CCn4c(cc5c4CC(C)(C)C5)C3=O)c2CO)cc(NC(=O)[C@H]2CC23CC3)c1=O` (single isomer, unassigned) [Compound 141], half-maximal inhibition in test [1] (setting [3]) (IC50) was put at 1600 nM. This compound displayed a Ki in test [2] (Table 2) of 5.8 nM.

Take `Cn1cc(-c2ccnc(N3CCn4c(cc5c4CC(C)(C)C5)C3=O)c2CO)cc(NC(=O)[C@@H]2CC23CCC3)c1=O` (single isomer, unassigned) [Compound 146]: in test [1] (setting [3]), the IC50 turned out to be 5200 nM. The compound further showed a Ki in test [2] (Table 2) of 17 nM. The compound `CC(=O)Nc1cc(-c2ccnc(-n3ncc4cc(C(C)(C)C)cc(F)c4c3=O)c2CO)cn(C)c1=O` [Compound 127, N-[5-[2-(6-tert-butyl-8-fluoro-1-oxo-phthalazin-2-yl)-3-(hydroxymethyl)-4-pyridyl]-1-methyl-2-oxo-3-pyridyl]acetamide] showed an IC50 in test [1] (setting [4]) of 335 nM. In test [2] (Table 1), this compound displayed an inhibitory constant (Ki) of 10.8 nM. Compound `Cn1cc(-c2cccc(N3CCc4c(cc5n4CC(C)(C)C5)C3=O)c2CO)cc(NC(=O)C2CC2)c1=O` [Compound 142, N-[5-[3-(7,7-dimethyl-4-oxo-1,2,6,8-tetrahydropyrido[3,4-b]pyrrolizin-3-yl)-2-(hydroxymethyl)phenyl]-1-methyl-2-oxo-3-pyridyl]cyclopropanecarboxamide] yielded an IC50 in test [1] (setting [3]) of 70 nM. The same compound returned a Ki in test [2] (Table 2) of 1.8 nM.

Compound `Cn1cc(-c2cc(F)cc(N3CCn4c(cc5c4CC(C)(C)C5)C3=O)c2CO)cc(NC(=O)[C@H]2C[C@H]2F)c1=O` [Compound 176, (1R,2R)—N-[5-[3-(7,7-dimethyl-4-oxo-1,2,6,8-tetrahydrocyclopenta[3,4]pyrrole[3,5-b]pyrazin-3-yl)-5-fluoro-2-(hydroxymethyl)phenyl]-1-methyl-2-oxo-3-pyridyl]-2-fluoro-cyclopropanecarboxamide] came in with an IC50 in test [1] (setting [3]) of 32.7 nM. In test [2] (Table 2), this compound registered a Ki of 2.1 nM. `Cc1cc(C)n(CC(=O)Nc2cc(-c3ccnc(N4CCn5c(cc6c5CC(C)(C)C6)C4=O)c3CO)cn(C)c2=O)n1` [Compound 108, N-[5-[2-(7,7-dimethyl-4-oxo-1,2,6,8-tetrahydrocyclopenta[3,4]pyrrolo[3,5-b]pyrazin-3-yl)-3-(hydroxymethyl)-4-pyridyl]-1-methyl-2-oxo-3-pyridyl]-2-(3,5-dimethylpyrazol-1-yl)acetamide] gave an IC50 in test [1] (setting [4]) of 2400 nM. The compound also returned a Ki in test [2] (Table 1) of 51.6 nM. `Cn1cc(-c2ccnc(N3CCn4c(cc5c4CC(C)(C)C5)C3=O)c2CO)cc(NC(=O)C2(F)CC2)c1=O` [Compound 134, N-[5-[2-(7,7-dimethyl-4-oxo-1,2,6,8-tetrahydrocyclopenta[3,4]pyrrolo[3,5-b]pyrazin-3-yl)-3-(hydroxymethyl)-4-pyridyl]-1-methyl-2-oxo-3-pyridyl]-1-fluoro-cyclopropanecarboxamide] returned an IC50 in test [1] (setting [3]) of 4200 nM. As to `Cn1cc(-c2ccnc(N3CCn4c(cc5c4CC(C)(C)C5)C3=O)c2CO)cc(NC(=O)[C@@H]2C[C@@H]2F)c1=O` [Compound 120, (1S,2S)—N-[5-[2-(7,7-dimethyl-4-oxo-1,2,6,8-tetrahydrocyclopenta[3,4]pyrrolo[3,5-b]pyrazin-3-yl)-3-(hydroxymethyl)-4-pyridyl]-1-methyl-2-oxo-3-pyridyl]-2-fluoro-cyclopropanecarboxamide], in test [1] (Homo sapiens, Lymphocyte, Table 1, anti-IgM stimulation), the IC50 was 85.8 nM. The compound `Cn1cc(-c2ccnc(N3CCn4c(cc5c4CC(C)(C)C5)C3=O)c2CO)cc(NC(=O)C2CC2F)c1=O` (stereo not drawn) [Compound 118, N-[5-[2-(7,7-dimethyl-4-oxo-1,2,6,8-tetrahydrocyclopenta[3,4]pyrrolo[3,5-b]pyrazin-3-yl)-3-(hydroxymethyl)-4-pyridyl]-1-methyl-2-oxo-3-pyridyl]-2-fluoro-cyclopropanecarboxamide] yielded an IC50 in test [1] (Table 1, anti-IgM stimulation) of 219 nM. Regarding `Cn1cc(-c2ccnc(N3CCn4c(cc5c4CC(C)(C)C5)C3=O)c2CO)cc(NC(=O)[C@H]2CCCO2)c1=O` (stereo in doubt) [Compound 148, (2R)—N-[5-[2-(7,7-dimethyl-4-oxo-1,2,6,8-tetrahydrocyclopenta[3,4]pyrrolo[3,5-b]pyrazin-3-yl)-3-(hydroxymethyl)-4-pyridyl]-1-methyl-2-oxo-3-pyridyl]tetrahydrofuran-2-carboxamide], the IC50 in test [1] (setting [3]) is > 6100 nM.

With `Cn1cc(-c2ccnc(N3CCn4c(cc5c4CC(C)(C)C5)C3=O)c2CO)cc(NC(=O)CC2CC2)c1=O` [Compound 103, 2-cyclopropyl-N-[5-[2-(7,7-dimethyl-4-oxo-1,2,6,8-tetrahydrocyclopenta[3,4]pyrrolo[3,5-b]pyrazin-3-yl)-3-(hydroxymethyl)-4-pyridyl]-1-methyl-2-oxo-3-pyridyl]acetamide], it took 4900 nM to reach half-maximal inhibition in test [1] (setting [4]) (IC50).

In test [1] (setting [4]), `CC(=O)Nc1cc(-c2ccnc(N3CCn4c(cc5c4CC(C)(C)C5)C3=O)c2CO)cn(C)c1=O` [Compound 121, N-[5-[2-(7,7-dimethyl-4-oxo-1,2,6,8-tetrahydrocyclopenta[3,4]pyrrolo[3,5-b]pyrazin-3-yl)-3-(hydroxymethyl)-4-pyridyl]-1-methyl-2-oxo-3-pyridyl]acetamide] had an IC50 of 535 nM. Same read-out and setting: with `CCC(=O)Nc1cc(-c2ccnc(N3CCn4c(cc5c4CC(C)(C)C5)C3=O)c2CO)cn(C)c1=O` [Compound 107, N-[5-[2-(7,7-dimethyl-4-oxo-1,2,6,8-tetrahydrocyclopenta[3,4]pyrrolo[3,5-b]pyrazin-3-yl)-3-(hydroxymethyl)-4-pyridyl]-1-methyl-2-oxo-3-pyridyl]propanamide] the figure was 1600 nM.

In test [1] (Table 1, anti-IgM stimulation), `Cn1cc(-c2ccnc(N3CCn4c(cc5c4CC(C)(C)C5)C3=O)c2CO)cc(NC(=O)C2CC2F)c1=O` (stereo not drawn) [Compound 117, N-[5-[2-(7,7-dimethyl-4-oxo-1,2,6,8-tetrahydrocyclopenta[3,4]pyrrolo[3,5-b]pyrazin-3-yl)-3-(hydroxymethyl)-4-pyridyl]-1-methyl-2-oxo-3-pyridyl]-2-fluoro-cyclopropanecarboxamide] displayed an IC50 of 567 nM.
